Reference: ChEMBL document CHEMBL5523691, “SAR study of N'-(Salicylidene)heteroarenecarbohydrazides as promising antifungal agents” (Bioorg Med Chem, 2024)
≈ marks a conversion by molar mass, not a printed value. Calls of active or inactive are those of the source. The calls are words filed in the database; no cut-off is given here.

What was measured:
Cryptococcus neoformans [1] = assay: Antifungal activity against wild type Cryptococcus neoformans H99 assessed as inhibition of fungal growth incubated for 24 to 72 hrs by optical density based analysis; type: functional; details: time 24-72 hrs
Cryptococcus neoformans [2] = assay: Fungicidal activity against wild type Cryptococcus neoformans H99 assessed as minimum concentration required to kill fungus measured after 48 hrs by time-kill assay; type: functional
[3] = Cytotoxicity against human A549 cells assessed as cell killing measured after 24 to 48 hrs by MTT assay; type: toxicity, cell-based; details: time 24-48 hrs, read-out: LD50 (the source's name)
Cryptococcus neoformans [4] = assay: Fungistatic activity against wild type Cryptococcus neoformans H99 assessed as inhibition of fungal growth incubated for 12 to 48 hrs by time-kill assay; type: functional, organism-based; details: time 12-48 hrs
[5] = Selectivity index, ratio of LD50 for human A549 cells to MIC80 for Cryptococcus neoformans H99; type: toxicity; details: read-out: Selectivity Index
Cryptococcus neoformans [6] = assay: Fungicidal activity against wild type Cryptococcus neoformans H99 assessed as minimum concentration required to kill fungus measured after 12 hrs by time-kill assay; type: functional
Aspergillus fumigatus = assay: Antifungal activity against Aspergillus fumigatus assessed as inhibition of fungal growth incubated for 24 to 72 hrs by optical density based analysis; type: functional; details: time 24-72 hrs
Cryptococcus neoformans [7] = assay: Fungicidal activity against wild type Cryptococcus neoformans H99 assessed as minimum concentration required to kill fungus measured after 24 hrs by time-kill assay; type: functional
Candida albicans = assay: Antifungal activity against Candida albicans assessed as inhibition of fungal growth incubated for 24 to 72 hrs by optical density based analysis; type: functional; details: time 24-72 hrs

| SMILES | MIC80 (Cryptococcus neoformans [1]) [µg/mL] | CC50 [3] [µg/mL] | selectivity ratio [5] | further results |
| --- | --- | --- | --- | --- |
| O=C(N/N=C/c1cc(Br)ccc1O)c1cc(Br)c[nH]1 | > 16 | – | – | – |
| O=C(N/N=C/c1cc(Br)cc(Br)c1O)c1cc[nH]n1 | 4 (≈ 10.3 µM) | – | – | – |
| O=C(N/N=C/c1cc(Br)ccc1O)c1cc(Br)c(Br)o1 | 0.25 (≈ 0.535 µM) | 32 (≈ 68.5 µM) | – | MFC100 (Cryptococcus neoformans [2]): 0.5 µg/mL (≈ 1.07 µM) |
| O=C(N/N=C/c1cc(Br)ccc1O)c1csc2ccccc12 | > 16 | – | – | – |
| O=C(N/N=C/c1c(O)ccc2ccccc12)c1cc[nH]c1 | > 16 | – | – | – |
| O=C(N/N=C/c1ccc(Br)cc1O)c1cncc(Br)c1 | 1 (≈ 2.51 µM) | > 32 | 64 | Activity (Cryptococcus neoformans [4]): Active |
| O=C(N/N=C/c1cc(Br)cc(Br)c1O)c1cncc(Br)c1 | > 16 | – | – | – |
| O=C(N/N=C/c1cc(Br)cc(Br)c1O)c1cc(Br)c(Br)o1 | 0.12 (≈ 0.22 µM) | 16 (≈ 29.3 µM) | 133 | MFC100 (Cryptococcus neoformans [6]): 0.12 µg/mL (≈ 0.22 µM) |
| O=C(N/N=C/c1c(O)ccc2ccccc12)c1ccc(Br)o1 | 0.12 (≈ 0.334 µM) | 32 (≈ 89.1 µM) | 267 | MFC100 (Cryptococcus neoformans [2]): 1 µg/mL (≈ 2.78 µM) |
| C[C@@H]1[C@H](O)[C@@H](C)/C=C/C=C/C=C/C=C/C=C/C=C/C=C/[C@H](O[C@@H]2O[C@H](C)[C@@H](O)[C@H](N)[C@@H]2O)C[C@@H]2O[C@](O)(C[C@@H](O)C[C@@H](O)[C@H](O)CC[C@@H](O)C[C@@H](O)CC(=O)O[C@H]1C)C[C@H](O)[C@H]2C(=O)O [AMPHOTERICIN B] | 0.5 (≈ 0.541 µM) | – | – | MIC80 (Aspergillus fumigatus): 1 µg/mL (≈ 1.08 µM) |
| O=C(N/N=C/c1cc(Br)ccc1O)c1cc[nH]c1 | 4 (≈ 13 µM) | – | – | – |
| O=C(N/N=C/c1cc(Br)ccc1O)c1ccc(C(F)(F)F)o1 | 2 (≈ 5.3 µM) | – | – | – |
| O=C(N/N=C/c1cc(Br)cc(Br)c1O)c1ccc[nH]1 | 2 (≈ 5.17 µM) | – | – | – |
| O=C(N/N=C/c1c(O)ccc2ccccc12)c1ccc(C(F)(F)F)o1 | 0.5 (≈ 1.44 µM) | 0.12 (≈ 0.345 µM) | 0.24 | MFC100 (Cryptococcus neoformans [2]): 2 µg/mL (≈ 5.74 µM) |
| O=C(N/N=C/c1c(O)ccc2ccccc12)c1ncc(Br)cn1 | 2 (≈ 5.39 µM) | – | – | – |
| O=C(N/N=C/c1cc(Br)cc(Br)c1O)c1ccc(Br)o1 | 0.06 (≈ 0.129 µM) | 16 (≈ 34.3 µM) | 267 | Activity (Cryptococcus neoformans [4]): Active |
| O=C(N/N=C/c1c(O)ccc2ccccc12)c1cncc(Br)c1 | 0.25 (≈ 0.675 µM) | 2 (≈ 5.4 µM) | 8 | MFC100 (Cryptococcus neoformans [2]): 2 µg/mL (≈ 5.4 µM) |
| Cc1ccc2c(C)c(C(=O)N/N=C/c3cc(Br)ccc3O)oc2c1 | > 16 | – | – | – |

| SMILES | MIC80 (Cryptococcus neoformans [1]) [µg/mL] | CC50 [3] [µg/mL] | selectivity ratio [5] | further results |
| --- | --- | --- | --- | --- |
| O=C(N/N=C/c1cc(Br)ccc1O)c1ccc(C(F)(F)F)s1 | 0.007 (≈ 0.0178 µM) | 1 (≈ 2.54 µM) | 143 | MFC100 (Cryptococcus neoformans [7]): 0.25 µg/mL (≈ 0.636 µM) |
| O=C(N/N=C/c1cc(Br)cc(Br)c1O)c1cc(Br)c[nH]1 | 4 (≈ 8.59 µM) | – | – | – |
| O=C(N/N=C/c1c(O)ccc2ccccc12)c1cc[nH]n1 | 4 (≈ 14.3 µM) | – | – | – |
| O=C(N/N=C/c1ccc(Br)cc1O)c1cc(Br)c[nH]1 | 8 (≈ 20.7 µM) | – | – | – |
| O=C(N/N=C/c1cc(Br)cc(Br)c1O)c1csc(Br)c1 | 0.12 (≈ 0.248 µM) | 16 (≈ 33.1 µM) | 133 | MFC100 (Cryptococcus neoformans [6]): 0.25 µg/mL (≈ 0.518 µM) |
| O=C(N/N=C/c1cc(Br)cc(Br)c1O)c1csc2ccccc12 | > 16 | – | – | – |
| O=C(N/N=C/c1cc(Br)cc(Br)c1O)c1ncc(Br)cn1 | 0.25 (≈ 0.522 µM) | – | – | Activity (Cryptococcus neoformans [4]): Active |
| O=C(N/N=C/c1c(O)ccc2ccccc12)c1cc(Br)c(Br)s1 | 16 (≈ 35.2 µM) | – | – | – |
| O=C(N/N=C/c1cc(Br)ccc1O)c1cc2cc(Br)ccc2o1 | > 16 | – | – | – |
| O=C(N/N=C/c1cc(Br)cc(Br)c1O)c1cc(Br)c(Br)s1 | 1 (≈ 1.78 µM) | > 32 | > 32 | MFC100 (Cryptococcus neoformans [6]): 1 µg/mL (≈ 1.78 µM) |
| O=C(N/N=C/c1cc(Br)ccc1O)c1cccs1 | 8 (≈ 24.6 µM) | – | – | – |
| O=C(N/N=C/c1ccc(Br)cc1O)c1cccs1 | 4 (≈ 12.3 µM) | – | – | – |
| O=C(N/N=C/c1ccc(Br)cc1O)c1ccco1 | 2 (≈ 6.47 µM) | – | – | – |
| CC[C@H](C)C[C@H](C)CCCCCCCCC(=O)N[C@H]1C[C@@H](O)[C@@H](NCCN)NC(=O)[C@@H]2[C@@H](O)CCN2C(=O)[C@H]([C@H](O)CCN)NC(=O)[C@H]([C@H](O)[C@@H](O)c2ccc(O)cc2)NC(=O)[C@@H]2C[C@@H](O)CN2C(=O)[C@H]([C@@H](C)O)NC1=O [CASPOFUNGIN] | > 32 | – | – | MIC80 (Candida albicans): 0.5 µg/mL (≈ 0.457 µM) |
| O=C(N/N=C/c1cc(Br)ccc1O)c1ncc(Br)cn1 | > 16 | – | – | – |
| O=C(N/N=C/c1ccc(Br)cc1O)c1cc(Br)c(Br)o1 | 0.06 (≈ 0.129 µM) | 16 (≈ 34.3 µM) | 267 | Activity (Cryptococcus neoformans [4]): Active |
| O=C(N/N=C/c1c(O)ccc2ccccc12)c1csc(Br)c1 | 0.25 (≈ 0.666 µM) | > 32 | > 128 | MFC100 (Cryptococcus neoformans [2]): 0.25 µg/mL (≈ 0.666 µM) |
